Here are results for 15 compounds from ChEMBL document CHEMBL5370530, “Discovery of 2,5-diaminopyrimidine derivatives as the first series of selective monomeric degraders of B-lymphoid tyrosine kinase” (Eur J Med Chem, 2023).

Assay [1] in a line: (§1) Downregulation of BLK level in human Ramos cells at 0.3 uM measured after 12 hrs by Western blot analysis. In kind it is functional.
For assay [2], the target named is Tyrosine-protein kinase SYK (Homo sapiens, UniProt P43405). The assay is described as follows: Inhibition of SYK phosphorylation in human Ramos cells incubated for 1 hr. In kind it is cell-based.
Assay [3] concerns the target Tyrosine-protein kinase BTK (Homo sapiens, UniProt Q06187). Description: Inhibition of full length N-terminal GST tagged BTK (2 to 659 end residues) (unknown origin) expressed in Sf21insect cells by time resolved fluorescence based assay. Further details: species or system Sf21.
Assay [4] addresses Tyrosine-protein kinase Lck (Homo sapiens) (UniProt P06239). The assay is described as follows: Induction of degradation of LCK in human Jurkat cells assessed as maximum degradation at > 1 uM incubated for 12 hrs by Western blot analysis relative to control. In kind it is cell-based.
The test system of assay [5] is DOHH-2. Description: Antiproliferative activity against human DOHH-2 cells at 0.1 to 0.3 uM measured after 72 hrs by cell titer glo luminescent cell viability assay. It is filed as functional, cell-based. The conditions noted are these: dose 0.1-0.3 µM.
Assay [6] has as its system HBL1. The assay is described as follows: Antiproliferative activity against human HBL1 cells at 0.1 to 0.3 uM measured after 72 hrs by cell titer glo luminescent cell viability assay. It is filed as functional, cell-based. To be noted: dose 0.1-0.3 µM.
Assay [7] has as its system SUD4. Description: Antiproliferative activity against human SU-DHL-4 cells at 0.1 to 0.3 uM measured after 72 hrs by cell titer glo luminescent cell viability assay. It is filed as functional, cell-based. To be noted: dose 0.1-0.3 µM.
Assay [8] deals with Pfeiffer. The assay is described as follows: Antiproliferative activity against human Pfeiffer cells at 0.1 to 0.3 uM measured after 72 hrs by cell titer glo luminescent cell viability assay. It is filed as functional, cell-based. The conditions noted are these: dose 0.1-0.3 µM.
The test system of assay [9] is SU-DHL-6. The assay is described as follows: Antiproliferative activity against human SU-DHL-6 cells at 0.1 to 0.3 uM measured after 72 hrs by cell titer glo luminescent cell viability assay. In kind it is functional, cell-based. To be noted: dose 0.1-0.3 µM.
The subject of assay [10] is RS4-11. Description: Antiproliferative activity against human RS4-11 cells at 0.1 to 0.3 uM measured after 72 hrs by cell titer glo luminescent cell viability assay. In kind it is functional, cell-based. The conditions noted are these: dose 0.1-0.3 µM.
In assay [11] the test system is OPM-2. Description: Antiproliferative activity against human OPM-2 cells at 0.1 to 0.3 uM measured after 72 hrs by cell titer glo luminescent cell viability assay. It is filed as functional, cell-based. To be noted: dose 0.1-0.3 µM.
Assay [12] deals with OCI-Ly7. Description: Antiproliferative activity against human OCILY7 cells at 0.1 to 0.3 uM measured after 72 hrs by cell titer glo luminescent cell viability assay. In kind it is functional, cell-based. To be noted: dose 0.1-0.3 µM.
The test system of assay [13] is Raji. The assay is described as follows: Antiproliferative activity against human Raji cells at 0.1 to 0.3 uM measured after 72 hrs by cell titer glo luminescent cell viability assay. It is filed as functional, cell-based. The conditions noted are these: dose 0.1-0.3 µM.
For assay [14], the system named is Ramos. Description: Antiproliferative activity against human Ramos cells at 0.1 to 0.3 uM measured after 72 hrs by cell titer glo luminescent cell viability assay. In kind it is functional, cell-based. To be noted: dose 0.1-0.3 µM.
Assay [15] deals with NAMALVA. Description: Antiproliferative activity against human NAMALVA cells at 0.1 to 0.3 uM measured after 72 hrs by cell titer glo luminescent cell viability assay. It is filed as functional, cell-based. To be noted: dose 0.1-0.3 µM.
Assay [16] has as its system TMD8. Description: Antiproliferative activity against human TMD8 cells at 0.1 to 0.3 uM measured after 72 hrs by cell titer glo luminescent cell viability assay. It is filed as functional, cell-based. To be noted: dose 0.1-0.3 µM.
The subject of assay [17] is RPMI-8226. The assay is described as follows: Antiproliferative activity against human RPMI-8226 cells at 0.1 to 0.3 uM measured after 72 hrs by cell titer glo luminescent cell viability assay. The conditions noted are these: dose 0.1-0.3 µM. It is filed as functional, cell-based.
The test system of assay [18] is CCRF-CEM. Description: Antiproliferative activity against human CCRF-CEM cells at 0.1 to 0.3 uM measured after 72 hrs by cell titer glo luminescent cell viability assay. In kind it is functional, cell-based. To be noted: dose 0.1-0.3 µM.
The test system of assay [19] is 6T-CEM. Description: Antiproliferative activity against human 6T-CEM cells at 0.1 to 0.3 uM measured after 72 hrs by cell titer glo luminescent cell viability assay. In kind it is functional, cell-based. The conditions noted are these: dose 0.1-0.3 µM.
The test system of assay [20] is MOLT-4. The assay is described as follows: Antiproliferative activity against human MOLT-4 cells at 0.1 to 0.3 uM measured after 72 hrs by cell titer glo luminescent cell viability assay. In kind it is functional, cell-based. To be noted: dose 0.1-0.3 µM.
In assay [21] the test system is Jurkat. The assay is described as follows: Antiproliferative activity against human Jurkat cells at 0.1 to 0.3 uM measured after 72 hrs by cell titer glo luminescent cell viability assay. It is filed as functional, cell-based. The conditions noted are these: dose 0.1-0.3 µM.
In assay [22] the test system is A-431. Description: Antiproliferative activity against human A-431 cells at 0.1 to 0.3 uM measured after 72 hrs by cell titer glo luminescent cell viability assay. In kind it is functional, cell-based. To be noted: dose 0.1-0.3 µM.
Assay [23] relates to PC-9. Description: Antiproliferative activity against human PC-9 cells at 0.1 to 0.3 uM measured after 72 hrs by cell titer glo luminescent cell viability assay. In kind it is functional, cell-based. To be noted: dose 0.1-0.3 µM.
Assay [24] concerns A549. The assay is described as follows: Antiproliferative activity against human A549 cells at 0.1 to 0.3 uM measured after 72 hrs by cell titer glo luminescent cell viability assay. To be noted: dose 0.1-0.3 µM. In kind it is functional, cell-based.
The test system of assay [25] is A-375. Description: Antiproliferative activity against human A-375 cells at 0.1 to 0.3 uM measured after 72 hrs by cell titer glo luminescent cell viability assay. In kind it is functional, cell-based. To be noted: dose 0.1-0.3 µM.
Assay [26] has as its system DOHH-2. Description: Growth inhibition of human DOHH-2 cells measured after 72 hrs by cell titer glo luminescent cell viability assay. It is filed as functional.
Assay [27] concerns SUD4. Description: Growth inhibition of human SU-DHL-4 cells measured after 72 hrs by cell titer glo luminescent cell viability assay. In kind it is functional.
The subject of assay [28] is SU-DHL-6. The assay is described as follows: Growth inhibition of human SU-DHL-6 cells measured after 72 hrs by cell titer glo luminescent cell viability assay. It is filed as functional.
Assay [29] deals with DOHH-2. Description: Downregulation of CDK2 level in human DOHH-2 cells at 1 uM measured after 48 hrs by Western blot analysis. In kind it is functional, cell-based.
Assay [30] concerns SU-DHL-6. Description: Downregulation of CDK2 level in human SU-DHL-6 cells at 1 uM measured after 48 hrs by Western blot analysis. It is filed as functional, cell-based.
In assay [31] the test system is Ramos. The assay is described as §1. In kind it is functional.

The source made the active and inactive calls. No cut-off for these calls is given here. A value given as a limit tells only on which side of the number the result lay.

Sequence of Tyrosine-protein kinase Lck (Homo sapiens) (P06239 2-509 limits assumed): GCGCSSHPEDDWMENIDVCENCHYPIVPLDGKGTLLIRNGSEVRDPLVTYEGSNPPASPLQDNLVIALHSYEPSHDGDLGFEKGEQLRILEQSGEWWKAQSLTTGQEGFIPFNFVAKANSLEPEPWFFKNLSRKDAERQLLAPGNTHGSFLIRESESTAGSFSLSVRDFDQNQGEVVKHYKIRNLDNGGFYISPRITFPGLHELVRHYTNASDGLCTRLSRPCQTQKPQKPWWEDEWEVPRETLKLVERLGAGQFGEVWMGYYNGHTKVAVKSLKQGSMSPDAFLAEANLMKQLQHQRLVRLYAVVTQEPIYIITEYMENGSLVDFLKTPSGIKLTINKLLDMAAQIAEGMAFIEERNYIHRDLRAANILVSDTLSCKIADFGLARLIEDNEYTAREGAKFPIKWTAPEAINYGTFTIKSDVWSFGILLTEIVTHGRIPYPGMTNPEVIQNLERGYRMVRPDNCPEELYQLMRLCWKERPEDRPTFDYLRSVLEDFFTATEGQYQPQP
Sequence of Tyrosine-protein kinase BTK (Q06187 whole entry): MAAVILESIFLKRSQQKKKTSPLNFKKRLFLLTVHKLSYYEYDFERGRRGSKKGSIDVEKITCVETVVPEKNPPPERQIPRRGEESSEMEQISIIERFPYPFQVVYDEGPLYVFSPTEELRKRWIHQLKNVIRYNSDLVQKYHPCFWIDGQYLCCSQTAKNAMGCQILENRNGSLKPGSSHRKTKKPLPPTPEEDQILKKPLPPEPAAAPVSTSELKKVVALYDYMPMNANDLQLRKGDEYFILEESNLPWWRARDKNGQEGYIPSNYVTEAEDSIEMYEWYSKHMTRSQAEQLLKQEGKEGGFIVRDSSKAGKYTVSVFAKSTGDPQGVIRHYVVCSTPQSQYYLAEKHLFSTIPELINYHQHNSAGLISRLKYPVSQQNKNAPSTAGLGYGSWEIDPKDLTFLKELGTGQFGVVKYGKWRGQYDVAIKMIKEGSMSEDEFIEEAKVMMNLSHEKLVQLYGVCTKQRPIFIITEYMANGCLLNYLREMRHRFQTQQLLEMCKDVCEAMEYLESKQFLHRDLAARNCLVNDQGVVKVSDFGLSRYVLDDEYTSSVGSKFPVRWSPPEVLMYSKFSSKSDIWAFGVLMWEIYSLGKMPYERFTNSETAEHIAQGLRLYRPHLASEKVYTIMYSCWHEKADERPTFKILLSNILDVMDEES

As to `CCC(=O)Nc1cccc(Nc2ncc(NC(=O)c3cc(NC(=O)c4cccc(C(F)(F)F)c4)ccc3C)cn2)c1`, in [1], the Activity is on record as more than 85%. In [2], this compound displayed an IC50 of less than 100 nM.

On to `Cc1ccc(NC(=O)c2ccc(-c3cccc(C(F)(F)F)c3)cc2)cc1C(=O)Nc1cnc(Nc2cccc(N)c2)nc1`, for which the IC50 stood at 2560 nM in [3] and 2900 nM in assay [2]. Besides, the Emax in assay [4] is less than 50%. The result in assay [5], in assay [7], in assay [8], in assay [9], in assay [29] and in assay [30] was Active. Also, the result in [6], in assay [10], in assay [11], in assay [12], in assay [13] and in assay [14] was inactive. Also, the result in assay [15], in assay [16], in [17], in assay [18], in assay [19] and in assay [20] was inactive. The result in assay [21], in [22], in [23], in assay [24] and in [25] was inactive. The 50% growth inhibitory concentration (GI50) in assay [26] was 130 nM; in [27] it was 180 nM; in assay [28], 360 nM.

In assay [3], `Cc1ccc(NC(=O)Cc2ccc(-c3ccccc3)cc2)cc1C(=O)Nc1cnc(Nc2cccc(N)c2)nc1` had an IC50 of 5810 nM. In [4], the Emax was less than 50%. Further, the results for the 50% growth inhibitory concentration (GI50) in assay [26], in [27] and in assay [28] were 2500 nM, 8900 nM and 6200 nM, respectively.

For `C=CC(=O)N1CCC(c2cccc(Nc3ncc(NC(=O)c4cc(NC(=O)c5ccc6cnccc6c5)ccc4C)cn3)c2)CC1`, the outcome in assay [31] was Active.

For the compound `C=CC(=O)N1CCC[C@@H](n2nc(-c3ccc(Oc4ccccc4)cc3)c3c(N)ncnc32)C1`, the outcome in assay [31] was inactive.

Turning to `Cc1ccc(NC(=O)c2ccc3ccccc3c2)cc1C(=O)Nc1cnc(Nc2cccc(N)c2)nc1`, in assay [2], the IC50 is less than 100 nM.

With `Cc1ccc(NC(=O)c2ccc3cnccc3c2)cc1C(=O)Nc1cnc(Nc2cccc(C3CCN(C(=O)/C=C/CN(C)C)CC3)c2)nc1`, the result in assay [31] was Active.

On to `Cc1ccc(NC(=O)CC23C[C@H]4C[C@@H](C2)C[C@@H](C3)C4)cc1C(=O)Nc1cnc(Nc2cccc(N)c2)nc1`, for which, in assay [3], the IC50 is 338 nM.

For the compound `CN1CCN(CCOc2cc(OC3CCOCC3)c3c(Nc4c(Cl)ccc5c4OCO5)ncnc3c2)CC1`, the outcome in [31] was Active.

`C=CC(=O)NCCC(=O)c1cccc(Nc2ncc(NC(=O)c3cc(NC(=O)c4cccc(-c5ccc(F)cc5)c4)ccc3C)cn2)c1` had an Activity in [1] of more than 85%.

Turning to `Cc1ccc(NC(=O)c2ccc(Oc3ccccc3)cc2)cc1C(=O)Nc1cnc(Nc2cccc(N)c2)nc1`, the half-maximal inhibitory concentration (IC50) in [3] turned out to be 991 nM; in assay [2], 2730 nM. Besides, the maximal response (Emax) in assay [4] was less than 50%.

In assay [3], `Cc1ccc(NC(=O)C[C@@]23C[C@@H]4C[C@@H](C[C@@](O)(C4)C2)C3)cc1C(=O)Nc1cnc(Nc2cccc(N)c2)nc1` had an IC50 of 855 nM.

For `Cc1ccc(-c2nn(C(C)(C)C)c3ncnc(N)c23)cc1`, the result in [31] was inactive. In addition, the concentration for 50% growth inhibition (GI50) in assay [26] is 3700 nM; in assay [27], more than 10000 nM; in assay [28], 4700 nM.

`C=CC(=O)Nc1cccc(Nc2nc(Nc3ccc(OCCOC)cc3)ncc2F)c1`: the outcome in assay [31] was Active.

Turning to `Cc1nc(Nc2ncc(C(=O)Nc3c(C)cccc3Cl)s2)cc(N2CCN(CCO)CC2)n1`, the result in [31] was Active.
